# In paper PMC11428108 (Frontiers in Molecular Neuroscience, 2024):
# Entries after “also recorded” stand apart in the source; their conditions may differ.
# Legend:
# [1] = biological target: T1, human (α4)2(β2)2α5 nAChRs (Homo sapiens, UniProt P17787+P30532+P43681); test: FLEXstation membrane potential assay in HEK cells stably expressing (α4)2(β2)2α5 nAChRs; assay type: cell-based
# T1 construct: expressed in transfected cells
# Excerpt: (§1) Human embryonic kidney (HEK) cell lines stably expressing human (α4)2(β2)2β2/α4 (α4β2*) nAChRs, (α4)2(β2)2α5 nAChRs, (α4)2(β2)2β3 nAChRs, (α3)2(β4)2α3/β4 (α3β4*) nAChRs, (α3)2(β2)2α3/β2 (α3β2*) nAChRs, (α3)2(β4)2α5 nAChRs, or (α3)2(β2)2α5 nAChRs were maintained as described previously ([Wang et al., 2015]; [Kuryatov et al., 2005]; [Caligiuri et al., 2022]). The FLEXstation bench top scanning fluorometer from Molecular Devices was used to assay nAChR function in these cells, according to published protocols ([Wang et al., 2015]; [Kuryatov et al., 2005]). The membrane potential kit (Molecular Devices) was used according to the manufacturer’s protocols. Serial dilutions of SR9883 were manually added to the assay plate 15 min prior to recording. […] Compound dilutions were prepared in V-shaped 96-well plates (Fisher Scientific Co.) and added to cell culture wells at a rate of 20 μL s^−1 during recording. Cells were incubated at 29°C for 6–20 h prior to assays to upregulate nAChRs ([Wang et al., 2015]; [Kuryatov et al., 2005]). Data points were averaged from 3 to 4 responses from separate wells. Potency and efficacy were calculated using the Hill equation as described previously ([Wang et al., 2015]).
# (§2) Concentration-response curves of SR9883 actions in nAChR-expressing HEK cells and oocytes were fitted to the Hill equation using a nonlinear least squares curve fit method and efficacy and potency values were calculated as previously described ([Wang et al., 2015]). Plasma and brain levels of SR9983 after oral administration were compared using a two-tailed paired t test. […] For the ICSS threshold experiment, percentages of baseline reward threshold scores were calculated by expressing the absolute threshold scores as a percentage of the scores obtained during baseline. The baseline values were the mean thresholds on the three sessions prior to drug injections. Response latency data were analyzed in the same manner as the threshold data. […] Effects of SR9883 on responding for food pellets in rats was analyzed by a two-tailed paired t test. […] Significant main or interaction effects in ANOVAs were followed by Bonferroni or Newman–Keuls post-hoc tests as appropriate. All statistical analyses were performed using GraphPad Prism software with α set to 0.05.
# [2] = biological target: T2, human (α4)2(β2)2β3 nAChRs (Homo sapiens, UniProt P17787+P43681+Q05901); test: FLEXstation membrane potential assay in HEK cells stably expressing (α4)2(β2)2β3 nAChRs; assay type: cell-based; conditions: ±SEM
# T2 construct: expressed in transfected cells
# Excerpt: as §1
# Concentration-response curves of SR9883 actions in nAChR-expressing HEK cells and oocytes were fitted to the Hill equation using a nonlinear least squares curve fit method and efficacy and potency values were calculated as previously described ([Wang et al., 2015]). Plasma and brain levels of SR9983 after oral administration were compared using a two-tailed paired t test. […] For the ICSS threshold experiment, percentages of baseline reward threshold scores were calculated by expressing the absolute threshold scores as a percentage of the scores obtained during baseline. The baseline values were the mean thresholds on the three sessions prior to drug injections. Response latency data were analyzed in the same manner as the threshold data. […] Effects of SR9883 on responding for food pellets in rats was analyzed by a two-tailed paired t test. […]
# [3] = tested on: human (α3)2(β4)2α3/β4 (α3β4*) nAChRs; test: FLEXstation membrane potential assay in HEK cells stably expressing α3β4* nAChRs; assay type: cell-based; conditions: SR9883 0.0005–10 μM
# Excerpt: (§3) Human embryonic kidney (HEK) cell lines stably expressing human (α4)2(β2)2β2/α4 (α4β2*) nAChRs, (α4)2(β2)2α5 nAChRs, (α4)2(β2)2β3 nAChRs, (α3)2(β4)2α3/β4 (α3β4*) nAChRs, (α3)2(β2)2α3/β2 (α3β2*) nAChRs, (α3)2(β4)2α5 nAChRs, or (α3)2(β2)2α5 nAChRs were maintained as described previously ([Wang et al., 2015]; [Kuryatov et al., 2005]; [Caligiuri et al., 2022]). The FLEXstation bench top scanning fluorometer from Molecular Devices was used to assay nAChR function in these cells, according to published protocols ([Wang et al., 2015]; [Kuryatov et al., 2005]). The membrane potential kit (Molecular Devices) was used according to the manufacturer’s protocols. Serial dilutions of SR9883 were manually added to the assay plate 15 min prior to recording. […] Potency and efficacy were calculated using the Hill equation as described previously ([Wang et al., 2015]).
# (§4) Concentration-response curves of SR9883 actions in nAChR-expressing HEK cells and oocytes were fitted to the Hill equation using a nonlinear least squares curve fit method and efficacy and potency values were calculated as previously described ([Wang et al., 2015]). […] For the ICSS threshold experiment, percentages of baseline reward threshold scores were calculated by expressing the absolute threshold scores as a percentage of the scores obtained during baseline. […] Response latency data were analyzed in the same manner as the threshold data. […]
# [4] = biological target: T3, human (α3)2(β4)2α5 nAChRs (Homo sapiens, UniProt P30532+P30926+P32297); test: FLEXstation membrane potential assay in HEK cells stably expressing (α3)2(β4)2α5 nAChRs; assay type: cell-based; conditions: SR9883 0.0005–10 μM
# T3 construct: expressed in transfected cells
# Excerpt: as §3, §4
# (α4)2(β2)2α4 nAChRs = biological target: T4, (α4)2(β2)2α4 nAChRs (Homo sapiens, UniProt P17787+P43681); test: nAChR-mediated currents in oocytes expressing (α4)2(β2)2α4 nAChRs (unpublished observations); assay type: cell-based; conditions: pure stoichiometry
# T4 construct: expressed in transfected cells
# Procedure: as §2
# male Wistar rats = test: Operant responding for food pellets (FR5TO20); assay type: in vivo; conditions: SR9883 10 mg kg^−1 IP, food-restricted rats; p = 0.9868
# Procedure: Operant chambers (Med Associates, East Fairfield, VT, United States) were used to assess responding by rats for food pellets and intravenous nicotine infusions. […] All rats were food-restricted to maintain their body weight at approximately 85% that of free-feeding weights. They were then trained to press an active lever for 45 mg food pellets on a fixed ratio 5 time-out 20 s (FR5TO20) schedule of reinforcement. […] Rats responded for food rewards until a reliable responding was achieved, defined as >90 pellets earned per 60 min session across three consecutive sessions. […] Rats were anesthetized using 1–3% isoflurane inhalation in oxygen and catheters were implanted into the left jugular vein. […]
# Concentration-response curves of SR9883 actions in nAChR-expressing HEK cells and oocytes were fitted to the Hill equation using a nonlinear least squares curve fit method and efficacy and potency values were calculated as previously described ([Wang et al., 2015]). […] For the ICSS threshold experiment, percentages of baseline reward threshold scores were calculated by expressing the absolute threshold scores as a percentage of the scores obtained during baseline. […] Response latency data were analyzed in the same manner as the threshold data. […] Effects of SR9883 on responding for food pellets in rats was analyzed by a two-tailed paired t test. […]
# [5] = biological target: human (α4)2(β2)2β2/α4 (α4β2*) nAChRs (Homo sapiens, UniProt P17787+P43681); test: FLEXstation membrane potential assay in HEK cells stably expressing α4β2* nAChRs; assay type: cell-based; parameters: expressed in transfected cells
# Excerpt: as §1, §2
# [6] = SR9883 10 μM, nicotine 0.001–50 μM
# [7] = SR9883 0.0005–10 μM on response to EC20-30 nicotine, HEK cells, ±SEM
# [8] = SR9883 0.0005–10 μM on response to EC20-30 nicotine, ±SEM
# [9] = response to EC20-30 nicotine with SR9883 relative to nicotine alone, ±SEM
# T2 sequence (P43681 29-627 limits assumed): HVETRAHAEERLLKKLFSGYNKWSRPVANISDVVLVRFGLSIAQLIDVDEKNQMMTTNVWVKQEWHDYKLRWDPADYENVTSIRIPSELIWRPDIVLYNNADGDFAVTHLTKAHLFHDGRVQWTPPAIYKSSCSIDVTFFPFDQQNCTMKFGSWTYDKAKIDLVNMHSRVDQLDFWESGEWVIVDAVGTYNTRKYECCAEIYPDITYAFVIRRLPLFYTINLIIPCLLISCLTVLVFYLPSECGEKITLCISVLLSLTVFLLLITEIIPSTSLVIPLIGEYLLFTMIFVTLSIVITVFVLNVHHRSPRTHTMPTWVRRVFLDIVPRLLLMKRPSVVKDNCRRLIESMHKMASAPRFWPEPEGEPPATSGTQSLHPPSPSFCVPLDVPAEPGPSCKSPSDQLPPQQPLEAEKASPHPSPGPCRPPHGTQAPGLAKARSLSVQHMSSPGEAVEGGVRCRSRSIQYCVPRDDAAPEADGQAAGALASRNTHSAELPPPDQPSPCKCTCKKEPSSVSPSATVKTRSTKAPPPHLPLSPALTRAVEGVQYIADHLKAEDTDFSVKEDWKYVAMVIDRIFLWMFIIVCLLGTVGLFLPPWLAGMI
# T2 sequence (P17787 26-502): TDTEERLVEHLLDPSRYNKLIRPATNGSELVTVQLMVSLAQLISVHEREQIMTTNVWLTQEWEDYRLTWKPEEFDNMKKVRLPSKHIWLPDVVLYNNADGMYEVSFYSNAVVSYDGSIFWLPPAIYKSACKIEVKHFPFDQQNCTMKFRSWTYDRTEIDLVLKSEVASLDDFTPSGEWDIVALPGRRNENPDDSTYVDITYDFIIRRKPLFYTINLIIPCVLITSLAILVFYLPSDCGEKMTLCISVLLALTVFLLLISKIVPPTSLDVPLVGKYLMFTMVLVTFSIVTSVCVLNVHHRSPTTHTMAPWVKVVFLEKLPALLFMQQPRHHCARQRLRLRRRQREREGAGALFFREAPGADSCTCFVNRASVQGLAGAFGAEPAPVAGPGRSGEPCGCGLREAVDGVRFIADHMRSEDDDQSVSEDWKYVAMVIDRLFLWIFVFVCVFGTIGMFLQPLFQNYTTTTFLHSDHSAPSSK
# T2 sequence (Q05901 25-458 limits assumed): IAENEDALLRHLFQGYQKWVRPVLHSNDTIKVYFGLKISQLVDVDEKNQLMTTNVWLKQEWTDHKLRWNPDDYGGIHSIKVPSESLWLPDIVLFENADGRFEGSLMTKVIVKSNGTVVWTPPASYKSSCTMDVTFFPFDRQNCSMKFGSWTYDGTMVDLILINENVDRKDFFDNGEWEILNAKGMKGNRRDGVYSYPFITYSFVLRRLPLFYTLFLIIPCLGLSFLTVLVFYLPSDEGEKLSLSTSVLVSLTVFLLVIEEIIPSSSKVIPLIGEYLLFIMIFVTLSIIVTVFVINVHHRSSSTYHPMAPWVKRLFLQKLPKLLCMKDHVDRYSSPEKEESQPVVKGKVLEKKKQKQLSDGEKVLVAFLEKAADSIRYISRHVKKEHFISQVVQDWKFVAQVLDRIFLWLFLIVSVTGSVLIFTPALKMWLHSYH
# T1 sequence (P43681 29-627 limits assumed): as the sequence (P43681 29-627 limits assumed) above
# T1 sequence (P17787 26-502): as the sequence (P17787 26-502) above
# T1 sequence (P30532 23-468): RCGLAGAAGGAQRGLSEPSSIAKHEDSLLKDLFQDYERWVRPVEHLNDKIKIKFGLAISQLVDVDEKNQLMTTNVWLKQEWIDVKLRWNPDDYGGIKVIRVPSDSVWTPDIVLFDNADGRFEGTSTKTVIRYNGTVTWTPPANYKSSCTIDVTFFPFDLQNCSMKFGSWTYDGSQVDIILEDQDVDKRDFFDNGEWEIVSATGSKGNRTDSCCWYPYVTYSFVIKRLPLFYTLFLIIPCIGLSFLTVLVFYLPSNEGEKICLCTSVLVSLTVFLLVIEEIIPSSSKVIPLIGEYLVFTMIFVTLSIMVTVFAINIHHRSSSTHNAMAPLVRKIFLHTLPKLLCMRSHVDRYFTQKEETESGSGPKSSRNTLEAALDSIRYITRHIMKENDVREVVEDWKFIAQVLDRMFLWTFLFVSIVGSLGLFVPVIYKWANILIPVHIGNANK
# Chain of human (α4)2(β2)2β2/α4 (α4β2*) nAChRs (P43681 27-627): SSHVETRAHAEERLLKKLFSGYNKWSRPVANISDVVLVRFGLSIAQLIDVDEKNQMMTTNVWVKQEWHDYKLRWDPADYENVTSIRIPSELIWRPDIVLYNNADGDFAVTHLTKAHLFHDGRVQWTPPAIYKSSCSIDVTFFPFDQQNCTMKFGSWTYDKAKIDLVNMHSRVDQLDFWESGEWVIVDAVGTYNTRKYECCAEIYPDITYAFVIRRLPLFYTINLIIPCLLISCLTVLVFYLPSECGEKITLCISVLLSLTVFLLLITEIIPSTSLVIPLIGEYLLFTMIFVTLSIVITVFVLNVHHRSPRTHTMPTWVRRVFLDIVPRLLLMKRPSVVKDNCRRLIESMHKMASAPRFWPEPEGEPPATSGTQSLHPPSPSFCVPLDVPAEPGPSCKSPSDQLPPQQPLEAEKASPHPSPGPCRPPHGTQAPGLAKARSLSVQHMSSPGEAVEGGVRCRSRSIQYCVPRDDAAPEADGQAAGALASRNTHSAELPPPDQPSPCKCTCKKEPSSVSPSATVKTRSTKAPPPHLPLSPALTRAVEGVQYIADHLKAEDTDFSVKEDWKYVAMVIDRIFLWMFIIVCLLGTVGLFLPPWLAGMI
# Chain of human (α4)2(β2)2β2/α4 (α4β2*) nAChRs (P17787 26-502): as the sequence (P17787 26-502) above
# T3 sequence (P32297 32-505): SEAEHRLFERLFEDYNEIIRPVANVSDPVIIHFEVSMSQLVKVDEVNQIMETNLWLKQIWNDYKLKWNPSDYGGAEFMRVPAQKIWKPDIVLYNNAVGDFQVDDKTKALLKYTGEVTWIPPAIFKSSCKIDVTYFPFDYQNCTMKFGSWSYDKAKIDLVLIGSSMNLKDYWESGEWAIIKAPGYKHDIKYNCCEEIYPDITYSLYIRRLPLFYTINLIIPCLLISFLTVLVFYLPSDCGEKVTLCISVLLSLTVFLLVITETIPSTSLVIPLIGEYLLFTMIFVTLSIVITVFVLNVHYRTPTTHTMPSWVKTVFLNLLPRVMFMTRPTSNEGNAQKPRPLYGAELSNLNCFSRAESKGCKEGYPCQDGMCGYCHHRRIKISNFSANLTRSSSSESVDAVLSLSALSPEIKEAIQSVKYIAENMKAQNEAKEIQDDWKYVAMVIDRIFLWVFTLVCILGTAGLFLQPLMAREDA
# T3 sequence (P30926 22-498): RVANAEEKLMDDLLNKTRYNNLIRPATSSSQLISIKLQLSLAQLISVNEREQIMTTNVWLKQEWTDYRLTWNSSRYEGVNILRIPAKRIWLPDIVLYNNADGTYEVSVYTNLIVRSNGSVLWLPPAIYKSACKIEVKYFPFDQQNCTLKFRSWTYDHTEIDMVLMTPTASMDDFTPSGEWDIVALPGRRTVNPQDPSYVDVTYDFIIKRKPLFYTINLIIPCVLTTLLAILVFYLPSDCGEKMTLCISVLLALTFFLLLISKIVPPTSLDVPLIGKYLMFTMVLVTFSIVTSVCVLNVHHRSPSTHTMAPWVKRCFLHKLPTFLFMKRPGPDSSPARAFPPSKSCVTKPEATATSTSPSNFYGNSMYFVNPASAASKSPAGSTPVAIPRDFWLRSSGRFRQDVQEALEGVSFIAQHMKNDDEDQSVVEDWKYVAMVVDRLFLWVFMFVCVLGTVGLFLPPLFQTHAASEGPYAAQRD
# T3 sequence (P30532 23-468): as the sequence (P30532 23-468) above
# T4 sequence (P43681 29-627 limits assumed): as the sequence (P43681 29-627 limits assumed) above
# T4 sequence (P17787 26-502): as the sequence (P17787 26-502) above
smiles,measurement,setting,value
"N#Cc1cccc(-n2nnc(-c3cccnc3)n2)c1 [SR9883, 3-(5-(pyridin-3-yl)-2H-tetrazol-2-yl)benzonitrile]",Effect on maximum response to nicotine,[1]; [6],no effect
same,EC50,[1]; [7],321 ± 98.2 nM
same,nHill,[1]; [8],0.8620 ± 0.1564
same,Efficacy,[1]; [9],146.18 ± 10.93%
same,EC50,"[2]; SR9883 0.0005–10 μM on response to EC20-30 nicotine, HEK cells",224 ± 149 nM
same,nHill,[2]; SR9883 0.0005–10 μM on response to EC20-30 nicotine,0.8567 ± 0.3792
same,Efficacy,[2]; response to EC20-30 nicotine with SR9883 relative to nicotine alone,96.44 ± 15.93%
same,EC50 (enhancement of response to EC20-30 nicotine),[3],no effect; also recorded: No enhancement
same,EC50 (enhancement of response to EC20-30 nicotine),[4],no effect; also recorded: No enhancement
same,nAChR-mediated currents,(α4)2(β2)2α4 nAChRs,enhanced nAChR-mediated currents
same,Food responding (food pellets earned),male Wistar rats,had no effect
same,Effect on maximum response to nicotine,[5]; [6],no effect
same,EC50,[5]; [7],381 ± 91.6 nM
same,nHill,[5]; [8],1.1015 ± 0.2269
same,Efficacy,[5]; [9],108.92 ± 7.65%
